The record followed here is patent publication US20120034296A1 (priority 2009, published 2012).

Data set [1] deals with Gadd45a, ATF3, SmagP, Cacna2d1. The conditions noted are these: rat, in vivo.

Molecules are shown by their SMILES. Structures can show the parent of a compound that is named as a salt. Where two headings read alike, the source gives them in different places.

As to `CN(C)CCC=C1c2ccccc2CCc2ccccc21` [amitriptyline], the “expression of Gadd45a, ATF3, SmagP, Cacna2d1 in dorsal root ganglia” value in data set [1] was “dramatically upregulated”.
Take `CCCCN1CCCCC1C(=O)Nc1c(C)cccc1C` (stereo not shown) [bupivacaine solution, bupivacaine hydrochloride]: the neurotoxicity / cytotoxicity entry in the data set on PC12 cells was “increased with concentration and duration of exposure”. The myotoxicity entry in the data set on C2C12 cells is “increased with concentration and duration of exposure”.
The compound `C[C@@H]1C[C@H]2[C@@H]3CCC4=CC(=O)C=C[C@]4(C)[C@@]3(F)[C@@H](O)C[C@]2(C)[C@@]1(O)C(=O)CO` [dexamethasone] displayed a decrease in survival in the data set on PC12 cells (rat) of 20%. In the data set on C2C12 cells (mouse), the myotoxicity result is listed as “not myotoxic at up to 2 days”, the survival is reported as 80±5% and the viability is recorded as above 90%.

By viability is commonly meant a per cent measure of how many cells are alive, often set against a control. A lower viability goes with a greater loss of cells.
